Results: the supplement of paper PMC4932681

Legend:
[1] = system: BT-474 Tam1; experiment: drug sensitivity score (DSS) (DSS (dimensionless)); higher = more sensitive; extreme values may be limits of the assay; conditions: 4-OH-tamoxifen in medium 1 µM; 72 h
Outline: (§1)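 Breast cancer cell lines and their resistant derivatives were seeded into 384-well plates holding FO2Baq library drugs at five concentrations spanning a 10 000-fold range. Resistant lines were in medium with 1 μM of the selecting drug. Cells were incubated 72 h at 37 °C, and CellTiter-Glo viability was read on a PHERAstar and normalised to vehicle-only and positive controls. Drug sensitivity score, relative IC50 (curve midpoint) and top-dose inhibition came from logistic dose–response fits (Breeze pipeline).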

[2] = system: BT-474 Tam2; experiment: as above; conditions: 4-OH-tamoxifen in medium 1 µM; 72 h
Outline: as §1

[3] = system: BT-474; experiment: as above; conditions: 72 h
Outline: as §1

[4] = system: MCF-7 Tam1; experiment: as above; conditions: 4-OH-tamoxifen in medium 1 µM; 72 h
Outline: as §1

[5] = system: MCF-7; experiment: as above; conditions: 72 h
Outline: as §1

[6] = system: T-47D Tam1; experiment: as above; conditions: 4-OH-tamoxifen in medium 1 µM; 72 h
Outline: as §1

[7] = system: T-47D Tam2; experiment: as above; conditions: 4-OH-tamoxifen in medium 1 µM; 72 h
Outline: as §1

[8] = system: T-47D; experiment: as above; conditions: 72 h
Outline: as §1

[9] = system: ZR-75-1 Tam1; experiment: as above; conditions: 4-OH-tamoxifen in medium 1 µM; 72 h
Outline: as §1

[10] = system: ZR-75-1 Tam2; experiment: as above; conditions: 4-OH-tamoxifen in medium 1 µM; 72 h
Outline: as §1

[11] = system: ZR-75-1; experiment: as above; conditions: 72 h
Outline: as §1

[12] = system: BT-474 Tam1; experiment: relative IC50 (midpoint of fitted logistic curve, plateau may be below 50% inhibition; CellTiter-Glo viability); higher = less potent; conditions: 4-OH-tamoxifen in medium 1 µM; 72 h
Outline: as §1

[13] = system: BT-474; experiment: as above; conditions: 72 h
Outline: as §1

[14] = system: MCF-7 Tam1; experiment: as above; conditions: 4-OH-tamoxifen in medium 1 µM; 72 h
Outline: as §1

[15] = system: T-47D Tam1; experiment: as above; conditions: 4-OH-tamoxifen in medium 1 µM; 72 h
Outline: as §1

[16] = system: T-47D Tam2; experiment: as above; conditions: 4-OH-tamoxifen in medium 1 µM; 72 h
Outline: as §1

[17] = system: T-47D; experiment: as above; conditions: 72 h
Outline: as §1

[18] = system: ZR-75-1 Tam1; experiment: as above; conditions: 4-OH-tamoxifen in medium 1 µM; 72 h
Outline: as §1

[19] = system: ZR-75-1 Tam2; experiment: as above; conditions: 4-OH-tamoxifen in medium 1 µM; 72 h
Outline: as §1

[20] = system: ZR-75-1; experiment: as above; conditions: 72 h
Outline: as §1

[21] = system: BT-474 Tam2; experiment: as above; conditions: 4-OH-tamoxifen in medium 1 µM; 72 h
Outline: as §1

[22] = system: MCF-7; experiment: as above; conditions: 72 h
Outline: as §1

## Oc1ccc2c(c1)CC[C@H](c1ccccc1)[C@@H]2c1ccc(OCCN2CCCC2)cc1 [Lasofoxifene]
[1]
  drug sensitivity score: 1.01
[2]
  drug sensitivity score: 0.434
[3]; 4-OH-tamoxifen in medium 0 µM
  drug sensitivity score: 0
[3]; 4-OH-tamoxifen in medium 1 µM
  drug sensitivity score: 0.881
[4]
  drug sensitivity score: 0
[5]; 4-OH-tamoxifen in medium 0 µM
  drug sensitivity score: 1.49
[5]; 4-OH-tamoxifen in medium 1 µM
  drug sensitivity score: 0.854
[6]
  drug sensitivity score: 0
[7]
  drug sensitivity score: 0
[8]; 4-OH-tamoxifen in medium 0 µM
  drug sensitivity score: 0
[8]; 4-OH-tamoxifen in medium 1 µM
  drug sensitivity score: 0
[9]
  drug sensitivity score: 0
[10]
  drug sensitivity score: 0
[11]; 4-OH-tamoxifen in medium 0 µM
  drug sensitivity score: 0
[11]; 4-OH-tamoxifen in medium 1 µM
  drug sensitivity score: 0
[12]
  relative IC50: 0.449 µM
[13]; 4-OH-tamoxifen in medium 0 µM
  relative IC50: > 1 µM
[14]
  relative IC50: > 1 µM
[15]
  relative IC50: > 1 µM
[16]
  relative IC50: > 1 µM
[17]; 4-OH-tamoxifen in medium 0 µM
  relative IC50: > 1 µM
[17]; 4-OH-tamoxifen in medium 1 µM
  relative IC50: > 1 µM
[18]
  relative IC50: > 1 µM
[19]
  relative IC50: > 1 µM
[20]; 4-OH-tamoxifen in medium 0 µM
  relative IC50: > 1 µM
[20]; 4-OH-tamoxifen in medium 1 µM
  relative IC50: > 1 µM

## O=NN(CCCl)C(=O)NC1CCCCC1 [Lomustine]
[1]
  drug sensitivity score: 0
[2]
  drug sensitivity score: 0
[3]; 4-OH-tamoxifen in medium 0 µM
  drug sensitivity score: 0
[3]; 4-OH-tamoxifen in medium 1 µM
  drug sensitivity score: 0
[4]
  drug sensitivity score: 0
[5]; 4-OH-tamoxifen in medium 0 µM
  drug sensitivity score: 0.0319
[5]; 4-OH-tamoxifen in medium 1 µM
  drug sensitivity score: 0.0924
[6]
  drug sensitivity score: 0
[7]
  drug sensitivity score: 0
[8]; 4-OH-tamoxifen in medium 0 µM
  drug sensitivity score: 0
[8]; 4-OH-tamoxifen in medium 1 µM
  drug sensitivity score: 0
[9]
  drug sensitivity score: 0
[10]
  drug sensitivity score: 0
[11]; 4-OH-tamoxifen in medium 0 µM
  drug sensitivity score: 0
[11]; 4-OH-tamoxifen in medium 1 µM
  drug sensitivity score: 0
[21]
  relative IC50: > 10 µM
[13]; 4-OH-tamoxifen in medium 0 µM
  relative IC50: > 10 µM
[13]; 4-OH-tamoxifen in medium 1 µM
  relative IC50: > 10 µM
[14]
  relative IC50: > 10 µM
[15]
  relative IC50: > 10 µM
[16]
  relative IC50: > 10 µM
[17]; 4-OH-tamoxifen in medium 0 µM
  relative IC50: > 10 µM
[17]; 4-OH-tamoxifen in medium 1 µM
  relative IC50: > 10 µM
[18]
  relative IC50: > 10 µM
[19]
  relative IC50: > 10 µM
[20]; 4-OH-tamoxifen in medium 0 µM
  relative IC50: > 10 µM
[20]; 4-OH-tamoxifen in medium 1 µM
  relative IC50: > 10 µM

## CC1(C)NC(=O)N(c2ccc([N+](=O)[O-])c(C(F)(F)F)c2)C1=O [Nilutamide]
[1]
  drug sensitivity score: 0
[2]
  drug sensitivity score: 0
[3]; 4-OH-tamoxifen in medium 0 µM
  drug sensitivity score: 0
[3]; 4-OH-tamoxifen in medium 1 µM
  drug sensitivity score: 0
[4]
  drug sensitivity score: 0
[5]; 4-OH-tamoxifen in medium 0 µM
  drug sensitivity score: 0
[5]; 4-OH-tamoxifen in medium 1 µM
  drug sensitivity score: 0.145
[6]
  drug sensitivity score: 0
[7]
  drug sensitivity score: 0
[8]; 4-OH-tamoxifen in medium 0 µM
  drug sensitivity score: 0
[8]; 4-OH-tamoxifen in medium 1 µM
  drug sensitivity score: 0
[9]
  drug sensitivity score: 0
[10]
  drug sensitivity score: 0
[11]; 4-OH-tamoxifen in medium 0 µM
  drug sensitivity score: 0
[11]; 4-OH-tamoxifen in medium 1 µM
  drug sensitivity score: 0
[12]
  relative IC50: > 10 µM
[13]; 4-OH-tamoxifen in medium 0 µM
  relative IC50: > 10 µM
[13]; 4-OH-tamoxifen in medium 1 µM
  relative IC50: > 10 µM
[14]
  relative IC50: > 10 µM
[22]; 4-OH-tamoxifen in medium 0 µM
  relative IC50: > 10 µM
[15]
  relative IC50: > 10 µM
[16]
  relative IC50: > 10 µM
[17]; 4-OH-tamoxifen in medium 0 µM
  relative IC50: > 10 µM
[17]; 4-OH-tamoxifen in medium 1 µM
  relative IC50: > 10 µM
[18]
  relative IC50: > 10 µM
[19]
  relative IC50: > 10 µM
[20]; 4-OH-tamoxifen in medium 0 µM
  relative IC50: > 10 µM
[20]; 4-OH-tamoxifen in medium 1 µM
  relative IC50: > 10 µM

## COC1=CC(c2cc3ccccc3[nH]2)=N/C1=C\c1[nH]c(C)cc1C [Obatoclax (GX15-070)]
[1]
  drug sensitivity score: 3.09
[2]
  drug sensitivity score: 12.1
[3]; 4-OH-tamoxifen in medium 0 µM
  drug sensitivity score: 6.87
[3]; 4-OH-tamoxifen in medium 1 µM
  drug sensitivity score: 0.367
[4]
  drug sensitivity score: 4.3
[5]; 4-OH-tamoxifen in medium 0 µM
  drug sensitivity score: 2
[5]; 4-OH-tamoxifen in medium 1 µM
  drug sensitivity score: 8.57
[6]
  drug sensitivity score: 8.83
[7]
  drug sensitivity score: 3.22
[8]; 4-OH-tamoxifen in medium 0 µM
  drug sensitivity score: 3.35
[8]; 4-OH-tamoxifen in medium 1 µM
  drug sensitivity score: 2.73
[9]
  drug sensitivity score: 1.02
[10]
  drug sensitivity score: 4.94
[11]; 4-OH-tamoxifen in medium 0 µM
  drug sensitivity score: 1.96
[11]; 4-OH-tamoxifen in medium 1 µM
  drug sensitivity score: 2.4
[12]
  relative IC50: 1.59 µM
[21]
  relative IC50: 0.619 µM
[13]; 4-OH-tamoxifen in medium 0 µM
  relative IC50: 1.27 µM
[14]
  relative IC50: 1.79 µM
[22]; 4-OH-tamoxifen in medium 0 µM
  relative IC50: 3.66 µM
[22]; 4-OH-tamoxifen in medium 1 µM
  relative IC50: 1.1 µM
[15]
  relative IC50: 0.797 µM
[16]
  relative IC50: 1.53 µM
[17]; 4-OH-tamoxifen in medium 0 µM
  relative IC50: 2.22 µM
[17]; 4-OH-tamoxifen in medium 1 µM
  relative IC50: 2.6 µM
[19]
  relative IC50: 1.42 µM
[20]; 4-OH-tamoxifen in medium 0 µM
  relative IC50: 2.38 µM
[20]; 4-OH-tamoxifen in medium 1 µM
  relative IC50: 1.71 µM
